{"source": "patent US8334315B2", "about": "“Substituted aromatic carboxamide and urea derivatives as vanilloid receptor ligands” (Gruenenthal GmbH, priority 2009, dated 2012)", "target": "T1, rat-species vanilloid receptor 1 (VR1/TRPV1) (Rattus norvegicus, UniProt O35433)", "T1 construct": "endogenous in cells; host or cells: primary cells dissociated from rat dorsal root ganglia (DRG), cultured 2-3 days with NGF", "T1 sequence (O35433 whole entry)": "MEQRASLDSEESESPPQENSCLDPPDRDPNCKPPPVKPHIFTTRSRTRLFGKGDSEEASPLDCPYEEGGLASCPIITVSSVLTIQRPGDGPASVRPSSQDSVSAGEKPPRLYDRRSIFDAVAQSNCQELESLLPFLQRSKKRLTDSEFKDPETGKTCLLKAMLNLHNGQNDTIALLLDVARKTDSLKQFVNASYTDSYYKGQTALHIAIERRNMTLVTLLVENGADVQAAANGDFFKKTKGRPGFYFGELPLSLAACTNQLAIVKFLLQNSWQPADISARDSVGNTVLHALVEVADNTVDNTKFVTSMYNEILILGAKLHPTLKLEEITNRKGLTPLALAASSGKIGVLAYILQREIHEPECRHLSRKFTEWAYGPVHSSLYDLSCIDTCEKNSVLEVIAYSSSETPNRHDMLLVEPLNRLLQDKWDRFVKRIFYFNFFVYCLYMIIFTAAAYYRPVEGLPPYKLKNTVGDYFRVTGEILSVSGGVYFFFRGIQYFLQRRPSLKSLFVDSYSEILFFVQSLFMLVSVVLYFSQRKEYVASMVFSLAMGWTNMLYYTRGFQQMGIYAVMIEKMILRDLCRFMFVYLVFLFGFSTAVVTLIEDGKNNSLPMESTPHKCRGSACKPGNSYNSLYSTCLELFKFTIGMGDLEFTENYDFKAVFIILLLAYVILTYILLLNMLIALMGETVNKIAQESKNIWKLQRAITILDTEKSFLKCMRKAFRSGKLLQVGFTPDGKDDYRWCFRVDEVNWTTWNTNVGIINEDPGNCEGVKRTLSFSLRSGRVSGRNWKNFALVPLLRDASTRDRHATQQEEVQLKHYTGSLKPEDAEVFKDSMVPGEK", "assay": "Functional test on rat VR1, NADA (N-arachidonoyl dopamine) stimulus", "type": "cell-based", "set-up": "key to Ki (rat) NADA: agonist / partial agonist / no effect: AG=agonist; pAG=partial agonist; NE=no effect", "excerpt": "I. Functional Testing Carried Out on the Vanilloid Receptor 1 (VRI/TRPV1 Receptor)\nThe agonistic or antagonistic effect of the substances to be tested on the rat-species vanilloid receptor 1 (VR1/TRPV1) can be determined using the following assay. In this assay, the influx of Ca^2+ through the receptor channel is quantified with the aid of a Ca^2+-sensitive dye (type Fluo-4, Molecular Probes Europe BV, Leiden, the Netherlands) in a fluorescent imaging plate reader (FLIPR, Molecular Devices, Sunnyvale, USA).\nThe vertebral column is removed from decapitated rats and placed immediately into cold HBSS buffer (Hank's buffered saline solution, Gibco Invitrogen GmbH, Karlsruhe, Germany), i.e. buffer located in an ice bath, mixed with 1% by volume (per cent by volume) of an AA solution (antibiotic/antimyotic solution, PAA, Pasching, Austria). […] The resulting pellet is respectively taken up in 250 μL of complete medium and the cell count is determined.\nThe number of cells in the suspension is set to 3×10^5 per ml and 150 μL of this suspension are in each case introduced into a recess in the cell culture plates coated as described hereinbefore. […] The Ca^2+-dependent fluorescence is in this case measured before and after the addition of substances (λex=488 nm, λem=540 nm). Quantification is carried out by measuring the highest fluorescence intensity (FC, fluorescence counts) over time. […]", "data": [{"smiles": "Cc1nc2ccc(C(C)C(=O)NCc3cc(C(F)(F)F)nn3-c3cccc(Cl)c3)cc2s1", "note": "(centres unmarked) [Example 45, N-((1-(3-chlorophenyl)-3-(trifluoromethyl)-1H-pyrazol-5-yl)methyl)-2-(2-methylbenzo[d]thiazol-6-yl)propanamide]", "values": [{"measurement": "Ki (rat) NADA: agonist / partial agonist / no effect", "result": "AG"}]}, {"smiles": "CC(C)(C)c1cc(CNC(=O)Nc2ccc3c(c2)CCC3)n(-c2cccc(Cl)c2)n1", "note": "[Example 79, 1-((3-tert-butyl-1-(3-chlorophenyl)-1H-pyrazol-5-yl)methyl)-3-(2,3-dihydro-1H-inden-5-yl)urea]", "values": [{"measurement": "Ki", "result": 39.1, "unit": "nM"}]}]}
